Test results taken from patent US9456589B2, “Elasmobranch-repelling compounds and methods of use” (priority 2005, dated 2016).
Values joined by “and” are separate entries in the source; they are usually repeats but may differ in a detail not shown here. Identical values can stand only once.

Columns and labels:
tiger sharks = assay: Tonic immobility, Hd Syringe Assay; type: in vivo, G. cuvieri; conditions: 1 ml
Method: One bioassay used to observe and measure flight response is the tonic immobility test. Tonic immobility is a state of paralysis that typically occurs when a shark is subject to inversion of its body along the longitudinal axis. This state is called “tonic,” and the shark can remain in this state for up to 15 minutes thereby allowing researchers to observe effects of chemical repellents. The “tonic” state of the shark is first established by releasing seawater in proximity to the “tonic” shark with the same delivery instrument and at the same distance as a “test” repellent compound will be released. Some controls are released with a high flow rate (30 mL/sec) in order to establish that sharks are not awakened by a jet of fluid over their noses. Once behavioral controls are established, a compound or composition that may have a repelling effect is delivered to the shark. If the compound or composition engenders a flight response, the shark will awaken from the tonic state and rapidly attempt to flee the delivered repellent. Using this tonic immobility bioassay researches can quantify the strength of a repellent effect.
Lemon, nurse, blacktip and tiger sharks were placed in tonic immobility by inverting the shark's body along its longitudinal axis. […]

[1] = system: sharks (lemon, nurse, tiger pooled); assay: Tonic immobility, Hd Syringe Assay, summary over species; type: in vivo; conditions: species pooled
How it was run: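 Sharks held in tonic immobility by inversion, with seawater sham releases (some at 30 mL/sec) as controls. 3-methylbutanal released slowly by 3 mL syringe (22 gauge) within 3 inches of mouth and nares. Waking/flight response recorded, with time to response where measurable.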

[2] = system: sharks (lemon, nurse, blacknose, blacktip pooled); assay: Tonic immobility, Syringe Assay, summary over species; type: in vivo
How it was run: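 Test chemical delivered as a bolus of 60 mL or more from one to five feet from the shark, distance set by water current strength. Time from delivery until response was recorded; it depends on bolus size, distance and current as the diffusing cloud reaches the shark.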

CC(C)CC=O [3-methylbutanal]
Response (time from delivery to response) (tiger sharks): 1 s
TTI (termination of tonic immobility) (tiger sharks): Y
Hd-Syringe N (no response), trials of trials [1]: one and 1/27
Hd-Syringe R (behavior response within tonic immobility), trials of trials [1]: 6/27
Hd-Syringe R, percent of trials [1]: 22%
Hd-Syringe Y (termination of tonic immobility), trials of trials [1]: 20/27
Hd-Syringe Y, percent of trials [1]: 74%
Syringe Y (termination of tonic immobility), trials of trials [2]: 7/7
